According to patent US10308644B2, “Heterocyclic compounds as immunomodulators” (Incyte Corporation, priority 2016, dated 2019):

target: PD-1/PD-L1 (Homo sapiens (Human), UniProt Q9NZQ7); assay: PD-1/PD-L1 Homogeneous Time-Resolved Fluorescence (HTRF) Binding Assay; settings: recombinant human PD-1 (3 nM) and PD-L1 (10 nM), 25° C., PBS pH 7.4
Outline: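 Fc-tagged human PD-1 (25-167, 3 nM) and His-tagged PD-L1 (19-238, 10 nM) preincubated with inhibitor 40 min in PBS pH 7.4, 0.05% Tween-20, 0.1% BSA, 1% DMSO, 25 °C. Binding detected by HTRF (Eu anti-IgG/APC anti-His, 665/620 nm) after 60 min; IC50 from percent control activity.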

Chain of PD-1/PD-L1 (Q9NZQ7 19-238): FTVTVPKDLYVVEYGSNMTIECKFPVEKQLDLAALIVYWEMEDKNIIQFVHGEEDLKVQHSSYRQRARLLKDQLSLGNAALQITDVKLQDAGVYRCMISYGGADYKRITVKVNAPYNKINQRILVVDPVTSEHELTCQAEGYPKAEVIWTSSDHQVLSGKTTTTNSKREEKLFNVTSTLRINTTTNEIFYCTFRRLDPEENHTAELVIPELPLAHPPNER

`Cc1c(-c2nc3cc(CN4CC[C@@H](C(=O)O)C4)cc(C#N)c3o2)cccc1-c1cccc(-c2nc3c(s2)CN(CC2CC2)CC3)c1C` [Example 64, (R)-1-((7-cyano-2-(3′-(5-(cyclopropylmethyl)-4,5,6,7-tetrahydrothiazolo[5,4-c]pyridin-2-yl)-2,2′-dimethyl-[1,1′-biphenyl]-3-yl)benzo[d]oxazol-5-yl)methyl)pyrrolidine-3-carboxylic acid] and `Cc1c(-c2nc3cc(CN4CC[C@@H](C(=O)O)C4)cc(C#N)c3o2)cccc1-c1cccc(-c2nc3c(s2)CN(CCO)CC3)c1C` [Example 65, (R)-1-((7-cyano-2-(3′-(5-(2-hydroxyethyl)-4,5,6,7-tetrahydrothiazolo[5,4-c]pyridin-2-yl)-2,2′-dimethyl-[1,1′-biphenyl]-3-yl)benzo[d]oxazol-5-yl)methyl)pyrrolidine-3-carboxylic acid] cannot be ordered by IC50: at most 10 nM for the first, at most 10 nM for the second.

`Cc1c(-c2nc3cc(CN4CC[C@@H](C(=O)O)C4)cc(Cl)c3o2)cccc1-c1cccc(-c2nc3c(s2)CN(C)CC3)c1C` [Example 71, (R)-1-((7-chloro-2-(2,2′-dimethyl-3′-(5-methyl-4,5,6,7-tetrahydrothiazolo[5,4-c]pyridin-2-yl)-[1,1′-biphenyl]-3-yl)benzo[d]oxazol-5-yl)methyl)pyrrolidine-3-carboxylic acid] and `Cc1c(-c2nc3cc(CN4CC[C@@H](C(=O)O)C4)cc(C#N)c3o2)cccc1-c1cccc(-c2nc3c(s2)CN(C(=O)CN2CC[C@@H](O)C2)C3)c1C` [Example 111, (R)-1-((7-cyano-2-(3′-(5-(2-((R)-3-hydroxypyrrolidin-1-yl)acetyl)-5,6-dihydro-4H-pyrrolo[3,4-d]thiazol-2-yl)-2,2′-dimethylbiphenyl-3-yl)benzo[d]oxazol-5-yl)methyl)pyrrolidine-3-carboxylic acid] cannot be ordered by IC50: at most 10 nM for the first, at most 10 nM for the second.

`Cc1c(-c2nc3cc(CN4CC[C@@H](O)C4)cc(C#N)c3o2)cccc1-c1cccc(NC(=O)c2nc3c(n2C)CCN(Cc2ccc(B(O)O)cc2)C3)c1Cl` [Example 240, (R)-4-((2-(2-chloro-3′-(7-cyano-5-((3-hydroxypyrrolidin-1-yl)methyl)benzo[d]oxazol-2-yl)-2′-methylbiphenyl-3-ylcarbamoyl)-1-methyl-6,7-dihydro-1H-imidazo[4,5-c]pyridin-5(4H)-yl)methyl)phenylboronic acid] and `Cc1c(-c2nc3cc(CN4CCCC[C@H]4C(=O)O)cc(Cl)c3o2)cccc1-c1cccc(NC(=O)c2ccc(CN3CC[C@H](O)C3)cn2)c1Cl` [Example 2, (S)-1-((7-chloro-2-(2′-chloro-3′-(5-(((S)-3-hydroxypyrrolidin-1-yl)methyl)picolinamido)-2-methyl-[1,1′-biphenyl]-3-yl)benzo[d]oxazol-5-yl)methyl)piperidine-2-carboxylic acid] cannot be ordered by IC50: at most 10 nM for the first, at most 10 nM for the second.

`Cc1c(-c2nc3cc(CN4CC[C@@H](C(=O)NCCO)C4)cc(C#N)c3o2)cccc1-c1cccc(-n2cc3c(n2)CN(C(C)C)CC3)c1Cl` [Example 104, (R)-1-((2-(2′-chloro-3′-(6-isopropyl-4,5,6,7-tetrahydro-2H-pyrazolo[3,4-c]pyridin-2-yl)-2-methylbiphenyl-3-yl)-7-cyanobenzo[d]oxazol-5-yl)methyl)-N-(2-hydroxyethyl)pyrrolidine-3-carboxamide] and `CNC(=O)[C@@H]1CCN(Cc2cc(C#N)c3oc(-c4cccc(-c5cccc(-n6cc7c(n6)CN(C(C)C)CC7)c5Cl)c4C)nc3c2)C1` [Example 103, (R)-1-((2-(2′-chloro-3′-(6-isopropyl-4,5,6,7-tetrahydro-2H-pyrazolo[3,4-c]pyridin-2-yl)-2-methylbiphenyl-3-yl)-7-cyanobenzo[d]oxazol-5-yl)methyl)-N-methylpyrrolidine-3-carboxamide] cannot be ordered by IC50: at most 10 nM for the first, at most 10 nM for the second.

`Cc1c(Nc2nccc3cc(CN4CC[C@@H](O)C4)cnc23)cccc1-c1cccc(-c2nc3cc(CN[C@H]4CCC[C@@H]4C(=O)O)cc(C#N)c3o2)c1C` [Example 179, (1S,2S)-2-((7-cyano-2-(3′-(3-(((R)-3-hydroxypyrrolidin-1-yl)methyl)-1,7-naphthyridin-8-ylamino)-2,2′-dimethylbiphenyl-3-yl)benzo[d]oxazol-5-yl)methylamino)cyclopentanecarboxylic acid] and `Cc1c(Nc2nccc3cc(CN4CC[C@@H](O)C4)cnc23)cccc1-c1cccc(-c2nc3cc(CNCC(C)(C)C(=O)O)cc(C#N)c3o2)c1C` [Example 86, (R)-3-((7-cyano-2-(3′-(3-((3-hydroxypyrrolidin-1-yl)methyl)-1,7-naphthyridin-8-ylamino)-2,2′-dimethylbiphenyl-3-yl)benzo[d]oxazol-5-yl)methylamino)-2,2-dimethylpropanoic acid] cannot be ordered by IC50: at most 10 nM for the first, at most 10 nM for the second.

`Cc1c(Nc2ncnc3cccnc23)cccc1-c1cccc(-c2nc3cc(CN4CC[C@@H](C(=O)O)C4)cc(C#N)c3o2)c1C` [Example 13, (R)-1-((7-cyano-2-(2,2′-dimethyl-3′-(pyrido[3,2-d]pyrimidin-4-ylamino)biphenyl-3-yl)benzo[d]oxazol-5-yl)methyl)pyrrolidine-3-carboxylic acid] and `Cc1c(Nc2nccc3cc(C4CCCN4)cnc23)cccc1-c1cccc(-c2nc3cc(CN4CC[C@@H](C(=O)O)C4)cc(C#N)c3o2)c1C` (single isomer, unassigned) [Example 98] cannot be ordered by IC50: at most 10 nM for the first, at most 10 nM for the second.

`Cc1c(Nc2nccc3cc(CNCCO)cnc23)cccc1-c1cccc(-c2nc3cc(CN4CC[C@@](C)(C(=O)O)C4)cc(C#N)c3o2)c1C` [Example 189, (R)-1-((7-cyano-2-(3′-(3-((2-hydroxyethylamino)methyl)-1,7-naphthyridin-8-ylamino)-2,2′-dimethylbiphenyl-3-yl)benzo[d]oxazol-5-yl)methyl)-3-methylpyrrolidine-3-carboxylic acid] and `Cc1c(Nc2nccc3cc(CN(C)CCO)cnc23)cccc1-c1cccc(-c2nc3cc(CN4CC[C@@](C)(C(=O)O)C4)cc(C#N)c3o2)c1C` [Example 190, (R)-1-((7-cyano-2-(3′-(3-(((2-hydroxyethyl)(methyl)amino)methyl)-1,7-naphthyridin-8-ylamino)-2,2′-dimethylbiphenyl-3-yl)benzo[d]oxazol-5-yl)methyl)-3-methylpyrrolidine-3-carboxylic acid] cannot be ordered by IC50: at most 10 nM for the first, at most 10 nM for the second.

`Cc1c(COc2cc(OCc3cncc(C#N)c3)c(CN3CCCC[C@H]3C(=O)O)cc2Cl)cccc1-c1cccc(-c2nc3cc(CN4CC[C@@H](C(=O)O)C4)cc(Cl)c3o2)c1C` [Example 149, (S)-1-(4-((3′-(5-(((R)-3-carboxypyrrolidin-1-yl)methyl)-7-chlorobenzo[d]oxazol-2-yl)-2,2′-dimethyl-[1,1′-biphenyl]-3-yl)methoxy)-5-chloro-2-((5-cyanopyridin-3-yl)methoxy)benzyl)piperidine-2-carboxylic acid] and `CCN(C1CCN(c2cccc(-c3cccc(-c4nc5cc(CN6CC[C@@H](C(=O)O)C6)cc(C#N)c5o4)c3C)c2Cl)CC1)[C@H]1C[C@@H](O)C1` [Example 49, (R)-1-((2-(2′-chloro-3′-(4-(ethyl((1s,3s)-3-hydroxycyclobutyl)amino)piperidin-1-yl)-2-methylbiphenyl-3-yl)-7-cyanobenzo[d]oxazol-5-yl)methyl)pyrrolidine-3-carboxylic acid] cannot be ordered by IC50: 10 to 100 nM for the first, at most 10 nM for the second.
